This is an account of results in US9598440B2, “Inhibitors of IRAK4 activity” (MERCK SHARP & DOHME CORP., priority 2012, dated 2017).

Sequence of IRAK4 (Q9NWZ3 whole entry): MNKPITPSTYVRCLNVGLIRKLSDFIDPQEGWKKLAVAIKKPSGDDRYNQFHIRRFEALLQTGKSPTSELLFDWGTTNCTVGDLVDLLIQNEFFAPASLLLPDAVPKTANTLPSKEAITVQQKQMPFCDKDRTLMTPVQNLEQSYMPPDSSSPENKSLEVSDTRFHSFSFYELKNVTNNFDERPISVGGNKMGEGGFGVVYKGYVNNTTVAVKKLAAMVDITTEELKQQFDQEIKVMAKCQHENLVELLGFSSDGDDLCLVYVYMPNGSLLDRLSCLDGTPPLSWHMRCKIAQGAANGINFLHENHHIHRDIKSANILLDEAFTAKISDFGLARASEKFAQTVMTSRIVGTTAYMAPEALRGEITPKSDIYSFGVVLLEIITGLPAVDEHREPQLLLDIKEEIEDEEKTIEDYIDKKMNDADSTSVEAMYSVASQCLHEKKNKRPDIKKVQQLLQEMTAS

This assay concerns the target IRAK4 (Homo sapiens (Human), UniProt Q9NWZ3). Briefly: Determination of IRAK4 kinase activity (IMAP fluorescence polarization, phosphorylation of fluorescent peptide substrate). The class given is biochemical. To be noted: 0.5 nM GST tagged IRAK4, 100 nM peptide substrate RP7030, 100 μM ATP, 30 minutes at 25° C. The procedure, abridged: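 GST-tagged IRAK4 (0.5 nM) phosphorylated 100 nM fluorescent peptide substrate with 100 µM ATP in Tris-HCl pH 7.2, 1 mM MgCl2, 1 mM DTT, 0.01% Tween 20 for 30 min at 25 °C. Phosphorylation read by IMAP nanoparticle binding as fluorescence polarization increase.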
(In general: In fluorescence polarisation assays a small probe gives low polarisation when free and higher when bound to something large.)
The term IC50 denotes the concentration at which inhibition is half-maximal. In the case of `Nc1ccc(-c2nc3ccccc3s2)c(N[C@@H]2C[C@H](CO)[C@@H](O)[C@H]2O)n1` [Example 158, (1R,2S,3R,5R)-3-((6-amino-3-(benzo[d]thiazol-2-yl)pyridin-2-yl)amino)-5-(hydroxymethyl)cyclopentane-1,2-diol], the IC50 is 9510 nM.
With `Cc1cc(Nc2cc(N[C@@H]3C[C@H](C(C)(C)O)[C@@H](O)[C@H]3O)c(-c3nc4ccccc4s3)cn2)cc(C)n1` [Example 159, (1R,2S,3R,5S)-3-((5-(benzo[d]thiazol-2-yl)-2-((2,6-dimethylpyridin-4-yl)amino)pyridin-4-yl)amino)-5-(2-hydroxypropan-2-yl)cyclopentane-1,2-diol] the figure was 6 nM; with `COc1cc(Nc2cc(N[C@@H]3C[C@H](C(C)(C)O)[C@@H](O)[C@H]3O)c(-c3nc4ccccc4s3)cn2)ccn1` [Example 160, (1R,2S,3R,5S)-3-((5-(benzo[d]thiazol-2-yl)-2-((2-methoxypyridin-4-yl)amino)pyridin-4-yl)amino)-5-(2-hydroxypropan-2-yl)cyclopentane-1,2-diol], 126 nM.
With `CC(C)(O)[C@H]1C[C@@H](Nc2cc(NC3CCC3)ncc2-c2nc3ccccc3s2)[C@H](O)[C@@H]1O` [Example 161, (1R,2S,3R,5S)-3-((5-(benzo[d]thiazol-2-yl)-2-(cyclobutylamino)pyridin-4-yl)amino)-5-(2-hydroxypropan-2-yl)cyclopentane-1,2-diol], the midpoint of inhibition, the IC50, lay at 890 nM.
The molecule `COc1cc(Nc2cc(N[C@@H]3C[C@H](C(C)(C)O)[C@@H](O)[C@H]3O)c(-c3ccc4ccccc4n3)cn2)ccn1` [Example 163, (1S,2R,3S,5R)-3-(2-hydroxypropan-2-yl)-5-((2-((2-methoxypyridin-4-yl)amino)-5-(quinolin-2-yl)pyridin-4-yl)amino)cyclopentane-1,2-diol] returned an IC50 of 20 nM.
